In general, pEC50 refers to the EC50 on a negative log10 scale, so that one unit is a factor of ten. Broadly, the pIC50 is the negative decadic logarithm of the IC50, by convention in mol/L. A low value points to a large IC50.

pEC50, pIC50: −log10 of the molar value. Calls of active or inactive are those of the source.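 Rule for the calls: active = compounds giving half or more protection of infected cells from virus-caused growth loss, again on retest; inactive = the rest.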

The values that follow come from PubChem BioAssay AID179 (DTP/NCI, 2004).

In this test the test system is CEM cells HIV-1 protection, formazan growth assay. Nature of the test: NCI AIDS Antiviral Assay. As to conditions: for pIC50: measured here: growth of uninfected CEM cells. In a few lines:
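Human CEM cells, uninfected and HIV-1-infected, exposed to five drug concentrations; growth measured by soluble formazan assay and scored as percent protection from infection, with protecting compounds retested.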

`COc1cc(NS(C)(=O)=O)ccc1Nc1c2ccccc2nc2c1[nH]c1ccc(NC3OC(CO)C(O)C(O)C3O)cc12` (stereo unspecified): the pEC50 is less than 6.92 and the pIC50 was 7.33.

On to `COc1ccccc1C(=O)Nc1ccc(Cl)c(C(=O)OC(C)C)c1`, for which the outcome was active.

For the molecule `OC1CC(c2ccccc2)Oc2ccccc21` (stereo unspecified), the result was inactive.

As to `CC(=O)OC1SC(c2c(F)cccc2F)n2c1nc1ccccc12` (stereo unspecified), the pEC50 is 4.42 and the pIC50 is 3.90.

For `N#C/C=C\c1ccc(-c2cc(C(F)(F)F)cc(C(F)(F)F)c2)o1`, the pEC50 was less than 3.70 and the pIC50 is 4.33.

As for `c1cncc(CN2CCCCC2)c1`, the result was inactive.

With `O=c1[nH]c(=O)n(COC(CO)CO)cc1-c1ccccc1`, the pEC50 was less than 3.70 and the pIC50 was less than 3.70.

Turning to `N#CCN1C(=O)c2cc([N+](=O)[O-])cc3cc([N+](=O)[O-])cc(c23)C1=O`, the outcome was inactive.

`COc1ccccc1C1(c2ccccc2OC)OC(=O)c2ccccc21`: the pEC50 is less than 3.70 and the pIC50 is 4.51.

With `O=c1cc(SCc2ccccc2Cl)[nH]c(=O)[nH]1`, the pEC50 was less than 3.94 and the pIC50 is less than 3.94.

As for `CNC(=O)N(C1CCCCC1)C1CCCCC1`, the pEC50 was less than 3.70 and the pIC50 was 3.96.

`O=C(Nc1ccc([N+](=O)[O-])cc1[N+](=O)[O-])C(=O)C(C(=O)c1ccc(Cl)c(Cl)c1)C1OC(=O)c2ccccc21` (stereo unspecified): the pEC50 is less than 4.05 and the pIC50 was 4.54.

For the molecule `C/C(CC(=O)Nc1ccccc1C)=N/NS(=O)(=O)c1ccc(C)cc1`, the pEC50 is less than 3.44 and the negative-log IC50 (pIC50) was less than 3.44.

In the case of `CSC(=Nc1ccc([N+](=O)[O-])cc1C#N)NC(=O)c1ccccc1`, the outcome was inactive.

Take `COC(=O)N/N=C(\c1ccccc1)c1ccc(OC)cc1`: the pEC50 was less than 3.70 and the pIC50 is 3.95.

As to `CCC1CCN=C(NS(=O)(=O)c2cc(C)c(Cl)cc2S)N1` (stereo unspecified), the pEC50 is less than 3.70 and the pIC50 was 4.40.

With `OC(C1CCC=NN1C(O)(C(F)(F)F)C(F)(F)F)(C(F)(F)F)C(F)(F)F` (stereo unspecified), the pEC50 is less than 3.70 and the pIC50 was 4.57.

For `O=C(c1ccc(Cl)cc1)N(C(=O)N1CCCCC1)c1ccccc1`, the pEC50 is less than 3.70 and the pIC50 was 4.09.

As to `NC(=O)C1C2CC3C(NC(=O)C31)C2O` (stereo unspecified), the pEC50 was less than 3.70 and the pIC50 was less than 3.70.

Turning to `CC(=O)OCC(C)(COC(C)=O)N1C(=O)C2C3c4ccccc4C(c4ccccc43)C2C1=O` (stereo unspecified), the pEC50 was less than 3.70 and the pIC50 was less than 3.70.

On to `C=CCC(C)(O)CCC(O)(CC=C)CC=C` (stereo unspecified), for which the pEC50 is less than 3.70 and the pIC50 was less than 3.70.

On to `O=c1[nH]c2nn(-c3ccccc3)cc2c(=O)n1O`, for which the pEC50 was less than 3.70 and the pIC50 was 5.48.

As for `COc1c(O)c2c(=O)cc3c4c5c(cc(=O)c6c(O)c(OC)c(CC(C)O)c(c(c1CC(C)O)c24)c65)OCO3` (stereo unspecified), the pEC50 was less than 4.62 and the pIC50 was 6.08.

With `CC(C)CNC12CN3CN(CN(C3)C1)C2`, the pEC50 is less than 2.92 and the pIC50 is less than 2.92.

With `C#C[C@]1(O)CC[C@H]2[C@@H]3C[C@@H](O)[C@]45CC4CC[C@]5(C)[C@H]3CC[C@@]21C` (stereo partly specified), the pEC50 was less than 3.70 and the pIC50 is 4.14.

`CCCCCCCCCCCC(=O)OC(COC(N)=O)COc1ccc(Cl)cc1` (stereo unspecified): the pEC50 was less than 4.91 and the pIC50 was less than 4.91.

On to `Cc1ccncc1.Cc1ccncc1.O=[N+]([O-])[O-].O=[N+]([O-])[O-].[Pt+2]`, for which the pEC50 is less than 3.83 and the pIC50 was 4.16.

Regarding `CC1=NN(C(=O)CC(=O)Nc2cccc(Cl)c2)C(=O)C1N=Nc1ccc(S(=O)(=O)c2ccc(N=NC3C(=O)N(C(=O)CC(=O)Nc4cccc(Cl)c4)N=C3C)cc2)cc1` (stereo unspecified), the pEC50 is less than 4.00 and the pIC50 is less than 4.00.
